The subject of the assay is rat bladder (rhythmic bladder contraction). The assay can be described thus: Isovolumetric bladder rat model. The assay is classed as in vivo. The procedure:
To assess the activity of compound 1 in preclinical models of painful urologic syndromes as OBS we used an isovolumetric rat bladder animal model. A preliminary PK/ADMET study was conducted to assess the behaviour of compound 1 in vivo (Table S3).
Female Wistar rats (190–250 g) obtained from Charles River Laboratories were housed according to animal welfare guidelines. Rats were housed in a specific-pathogen-free environment under strictly controlled light cycle conditions, and food and water were provided ad libitum. All experimental protocols were carried out by Urosphere in accordance with the European Community Council Directive 86/609/EEC. They were performed in accordance with French legislation concerning the protection of laboratory animals and they were approved by French Ministry for Agriculture and Fisheries which provided a currently valid license for experiments on vertebrate animals to Dr. Philippe Lluel.
For intravenous administration, compound 1 was diluted in vehicle (10% of 2:1 solutol:NMP, 16% buffer, and 74% H2O) according to body weight to obtain doses of 10 mg/kg. For intravesical administration, compound 1 was diluted at a concentration of 7.56 mg/ml in a solution of 7% 2:1 solutol:NMP, […]. Eight rats were used for the control group and eight were used for the treated group.
Rats were anesthetized with urethane (1 g/kg, i.p.), given as a divided dose of 80% initially and 20% 15 min later. After abdominal incision, the ureters were ligated and sectioned. A catheter was placed into the bladder through the urethra. Then, the urethra was ligated at the level of the urinary meatus. For cystometric experiments with intravenous compound 1 administration a bladder catheter was connected via a T-tube to a strain gauge, which was used to measure the intravesical pressure. Isovolumetric bladder contractions were induced by stepwise injections of physiological saline at room temperature (100 μl every 5 min) until stable RBC occurred. After stabilization and a control period of at least 30 min, characterized by stable and reproducible bladder contractions (basal values), the test substance or vehicle was administered by intravenous infusion (1 mL within 5 min). The effects of compound 1 on micturition frequency (MF) (peaks/30 min), time of inhibition, and threshold volume (ml) (volume inducing RBC) were analyzed. The drug effects were evaluated from the end of the administration up to 1 hour after administration. For intravesical administration, compounds were administered intravesically 3 × 100 μl every 5 min. Then, the bladder was filled with 100 μl of saline every 5 min until the occurrence of rhythmic bladder contraction (RBC) with a maximal volume of 3 mL. […]

This note sets out measurements from PMC5591244, “Novel selective, potent naphthyl TRPM8 antagonists identified through a combined ligand- and structure-based virtual screening approach” (Scientific Reports, 2017).

Each structure is given as a SMILES string. “Also recorded” adds a separate entry of the source.

Turning to `Clc1c(OCCNCc2ccco2)ccc2ccccc12` [Compound 1], the “Threshold volume versus vehicle, intravenous” value (intravenous 10 mg/kg) is recorded as “No significant difference”. Moreover, the “Micturition frequency (MF) 0–30 min post-administration” value (intravenous 10 mg/kg, 0–30 min, 10 mg/kg) was “significantly decreased; also recorded: significantly reduced”. In addition, the “Micturition frequency (MF) 30–60 min post-administration” value (intravenous 10 mg/kg, 30–60 min) is “no effect”. For the same compound, the “Occurrence of RBC, intravesical” value (intravesical 2.268 mg) is reported as “abolished the occurrence of RBC”.
